From US8163160B2, “Biosensor having improved hematocrit and oxygen biases” (Abbott Diabetes Care Inc., priority 2002, dated 2012) come the findings set out here.

SMILES strings stand for the structures. ≈ marks a conversion by molar mass, not a printed value. Where only a bound is given, the exact number is not on record here.

The series is described as follows: Solubility tests in water. It counts as physicochemical. The method, then: Solubility tests in water were performed on the new redox mediators in comparison with the standard PQ mediators.

Usually solubility stands for how much of the substance goes into solution per volume. As to `O=C1C(=O)c2cccnc2-c2ncccc21` [PQ, 1,10-phenanthroline-5,6-dione, reference compound], the “Solubility in Water (percent)” value is reported as “mg/ml (0.2%)” and the concentration in solution (solubility) came to 2000 µg/mL (≈ 9.52 mM).
On to `O=C1C(=O)c2cccnc2-c2ncccc21.O=C1C(=O)c2cccnc2-c2ncccc21.O=C1C(=O)c2cccnc2-c2ncccc21.[Ni+2].[O-][Cl+3]([O-])([O-])[O-].[O-][Cl+3]([O-])([O-])[O-]` [[Ni(PQ)3](ClO4)2], for which the “Solubility in Water” value was under 0.5 mg/mL and the “Solubility in Water (percent)” value was “mg/ml (<0.05%)”.
`CC(=O)[O-].CC(=O)[O-].O=C1C(=O)c2cccnc2-c2ncccc21.O=C1C(=O)c2cccnc2-c2ncccc21.O=C1C(=O)c2cccnc2-c2ncccc21.[Ni+2]` [[Ni(PQ)3](O2CCH3)2]: the “Solubility in Water” value is over 500 mg/mL and the “Solubility in Water (percent)” value was “mg/ml (>50%)”.
